Laboratory results reported in ChEMBL document CHEMBL2150867, “Comparative study of the affinity and metabolism of type I and type II binding quinoline carboxamide analogues by cytochrome P450 3A4” (J Med Chem, 2012).
pKi: −log10 of the molar value.

Key:
Type in all cases: ADME
Cytochrome P450 3A4 [1] = molecular target: T1, Cytochrome P450 3A4 (Homo sapiens, UniProt P08684); assay: Binding affinity to recombinant CYP3A4 NF-14 expressed in Escherichia coli at maximum spectrum 420 to 435 and a trough at 390 to 405 nm by UV-Visible spectroscopy; conditions: recombinant enzyme, 0.405 µM
T1 sequence (P08684 whole entry): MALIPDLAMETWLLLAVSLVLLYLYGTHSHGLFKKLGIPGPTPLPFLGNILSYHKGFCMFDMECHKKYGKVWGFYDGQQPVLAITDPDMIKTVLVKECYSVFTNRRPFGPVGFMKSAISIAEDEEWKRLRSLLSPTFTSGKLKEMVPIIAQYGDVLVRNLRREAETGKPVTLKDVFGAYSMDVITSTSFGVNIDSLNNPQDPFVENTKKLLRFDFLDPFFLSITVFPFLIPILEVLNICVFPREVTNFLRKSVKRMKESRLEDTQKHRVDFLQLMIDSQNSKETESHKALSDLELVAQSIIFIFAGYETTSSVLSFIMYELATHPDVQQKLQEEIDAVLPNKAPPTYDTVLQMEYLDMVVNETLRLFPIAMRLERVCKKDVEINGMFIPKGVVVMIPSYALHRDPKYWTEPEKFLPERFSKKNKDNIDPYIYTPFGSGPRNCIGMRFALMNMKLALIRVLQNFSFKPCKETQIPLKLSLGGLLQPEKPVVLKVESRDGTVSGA

Cytochrome P450 3A4 [2] = molecular target: T1, Cytochrome P450 3A4; assay: Inhibition of recombinant CYP3A4 NF-14 expressed in Escherichia coli assessed as formation of 6-beta-hydroxytestosterone using testosterone as substrate after 5 mins by HPLC based UV method
Cytochrome P450 3A4 [3] = molecular target: T1, Cytochrome P450 3A4; assay: Intrinsic clearance assessed as CYP3A4-mediated clearance; conditions: recombinant enzyme
Cytochrome P450 3A4 [4] = molecular target: T1, Cytochrome P450 3A4; assay: Binding affinity to recombinant CYP3A4 NF-14 expressed in Escherichia coli at maximum spectrum 385 to 390 nm and a trough at 415 to 420 nm by UV-Visible spectroscopy; conditions: recombinant enzyme
Cytochrome P450 3A4 [5] = molecular target: T1, Cytochrome P450 3A4; assay: Metabolic stability of the compound assessed as CYP3A4 NF-14-mediated aromatic hydroxylation at ring-B
Cytochrome P450 3A4 [6] = molecular target: T1, Cytochrome P450 3A4; assay: (§1) Metabolic stability of the compound assessed as CYP3A4 NF-14-mediated N-demethylation
CYP3A4 = CYP3A4 (Homo sapiens, UniProt P08684); assay: as §1; conditions: human, CYP3A4 NF-14
CYP3A4, sequence (P08684 whole entry): as above

Cytochrome P450 3A4 [7] = molecular target: T1, Cytochrome P450 3A4; assay: Metabolic stability of the compound assessed as CYP3A4 NF-14-mediated ratio of product formation from functional group oxidation at ring A to aromatic hydroxylation at ring B
Cytochrome P450 3A4 [8] = molecular target: T1, Cytochrome P450 3A4; assay: Metabolic stability of the compound assessed as CYP3A4 NF-14-mediated ratio of product formation from functional group oxidation at ring A to aromatic hydroxylation at ring A
Cytochrome P450 3A4 [9] = molecular target: T1, Cytochrome P450 3A4; assay: Metabolic stability of the compound assessed as CYP3A4 NF-14-mediated aromatic hydroxylation at ring-A

Row | Activity (Cytochrome P450 3A4 [1]) | pKi (Cytochrome P450 3A4 [2]) | CL (Cytochrome P450 3A4 [3]) | Activity (Cytochrome P450 3A4 [4]) | Structure (SMILES) | further results
1 | Active | 5.52 | 4 µM⁻¹ min⁻¹ |  | Cc1ccc(NC(=O)c2cc(-c3ccncn3)nc3ccccc23)cc1 | 
2 |  | 4.84 | 9.6 µM⁻¹ min⁻¹ | Active | CN(C)c1ccc(NC(=O)c2cc(-c3ccccc3)nc3ccccc23)cc1 | Kcat (Cytochrome P450 3A4 [5]): 0 s⁻¹; Kcat (Cytochrome P450 3A4 [6]): 0.465 s⁻¹; Km (CYP3A4): 2.9 µM
3 |  | 5.39 | 1.3 µM⁻¹ min⁻¹ | Active | O=C(Nc1ccccc1)c1cc(-c2ccccc2)nc2ccccc12 | Ratio (Cytochrome P450 3A4 [7]): 1.3
4 |  | 5.40 | 3.4 µM⁻¹ min⁻¹ | Active | Cc1ccc(NC(=O)c2cc(-c3ccccc3)nc3ccccc23)cc1 | Ratio (Cytochrome P450 3A4 [7]): 6
5 | Active | 6.27 | 4.4 µM⁻¹ min⁻¹ |  | COc1ccc(NC(=O)c2cc(-c3ccncc3)nc3ccccc23)cc1 | Ratio (Cytochrome P450 3A4 [8]): 1.4; Kcat (Cytochrome P450 3A4 [9]): 0.0217 s⁻¹; Km (Cytochrome P450 3A4 [9]): 0.7 µM
6 | Active | 6.10 | 12.7 µM⁻¹ min⁻¹ |  | CN(C)c1ccc(NC(=O)c2cc(-c3ccncc3)nc3ccccc23)cc1 | Kcat (Cytochrome P450 3A4 [9]): 0 s⁻¹; Kcat (Cytochrome P450 3A4 [6]): 0.218 s⁻¹
7 | Active | 6.27 | 9.7 µM⁻¹ min⁻¹ |  | Cc1ccc(NC(=O)c2cc(-c3ccncc3)nc3ccccc23)cc1 | Ratio (Cytochrome P450 3A4 [8]): 4.4
8 |  | 4.92 | 2.2 µM⁻¹ min⁻¹ | Active | COc1ccc(NC(=O)c2cc(-c3ccccn3)nc3ccccc23)cc1 | 
9 |  | 4.48 | 1 µM⁻¹ min⁻¹ | Active | CN(C)c1ccc(NC(=O)c2cc(-c3ccccn3)nc3ccccc23)cc1 | 
10 |  | 5.41 | 2.9 µM⁻¹ min⁻¹ | Active | Cc1ccc(NC(=O)c2cc(-c3ccccn3)nc3ccccc23)cc1 | 
11 | Active | 4.70 | 3.4 µM⁻¹ min⁻¹ |  | COc1ccc(NC(=O)c2cc(-c3cnccn3)nc3ccccc23)cc1 | 
12 | Active | 4.80 | 2.8 µM⁻¹ min⁻¹ |  | CN(C)c1ccc(NC(=O)c2cc(-c3cnccn3)nc3ccccc23)cc1 | 
13 | Active | 5.16 | 2.5 µM⁻¹ min⁻¹ |  | O=C(Nc1ccccc1)c1cc(-c2cnccn2)nc2ccccc12 | 
14 | Active | 5.57 | 3.3 µM⁻¹ min⁻¹ |  | Cc1ccc(NC(=O)c2cc(-c3cnccn3)nc3ccccc23)cc1 | 
15 | Active | 5.66 | 3.3 µM⁻¹ min⁻¹ |  | COc1ccc(NC(=O)c2cc(-c3ccncn3)nc3ccccc23)cc1 | 
16 | Active | 5.08 | 3.4 µM⁻¹ min⁻¹ |  | CN(C)c1ccc(NC(=O)c2cc(-c3ccncn3)nc3ccccc23)cc1 | 
17 | Active | 5.66 | 3.2 µM⁻¹ min⁻¹ |  | O=C(Nc1ccccc1)c1cc(-c2ccncn2)nc2ccccc12 | 
18 | Active | 6.15 | 12.1 µM⁻¹ min⁻¹ |  | O=C(Nc1ccccc1)c1cc(-c2ccncc2)nc2ccccc12 | Ratio (Cytochrome P450 3A4 [8]): 1.3
19 |  | 4.84 | 1.3 µM⁻¹ min⁻¹ | Active | O=C(Nc1ccccc1)c1cc(-c2ccccn2)nc2ccccc12 | 
